{
  "source": "patent EP0260606A2",
  "about": "“Medicament for curing neurotic disturbance or disorder comprising sialocylglycerolipid” (MECT CORPORATION, priority 1986, dated 1988)",
  "system": "rats having their sciatic nerves crushed",
  "experiment": "Curing effect on rats with crushed sciatic nerve (distance between toes, weight of musculi soleus)",
  "assay_type": "in vivo, rat",
  "conditions": "0.5 mg/kg, ip, average ± S.D.",
  "method": "The curing effect of the compound (I) of the invention on the rats having their sciatic nerves crushed, which were used as models caused by peripheral nervous disturbances, was assessed by examining (l) the change in action of the crushed hind leg and (2) the change in weight of the muscle as indicators for the modification of peripheral nerve and for the recovery course of the disturbance.\nIn the experiment, seven male Wister family rats (6 weeks age) were used per a group. The sciatic nerve of each rat was crushed in accordance with the method of Yamazu et al. (see Kiyomi Yamazu, Takenori Kaneko, Akifumi Kitahara and Isao Ohkawa, Journal of Japanese Pharmacological Society, 72, 259 - -268 (l976)) and in accordance with the method of Hasegawa et al. (see Kazuo Hasegawa, Naoji Mikuni and Yutaka Sakai, Journal of Japanese Pharmacological Society, 74, 72l - 734 (l978)). Specifically, under anesthesia with Pentobarbital (40 mg/kg, i.p.), the left sciatic nerve was exposed at the femur and the site 5 mm centrally from the branch portion between the N. tibialis and the N. suralis was crushed using a modified artery klemme having a width of 2 mm and gap of 0.l mm. Rats subjected to the operation were randomly dispensed to form the groups subjected to test.\nThe compound (I) of the invention was intraperitoneally administered one time per day from the day on which the nerve was crushed to the 22nd day. The control groups included a group administered with Mecobalamin (produced by Gedeon Richter Ltd.), a group administered with a 20% aqueous solution of propylene glycol (hereinafter referred to as 20% PG) which was used to dissolve the compound (I) of the invention, and a group administered with a 0.9% aqueous saline solution. The predetermined measurements were conducted with the lapse of time after the crushing operation (at the first, fourth, seventh, tenth, l4th, l5th, l7th, l9th 2lst and 28th days).\nThe distance between the toes was measured, since this is a good indicator showing the modification and recovery of the function of the nerve and the change thereof could conveniently measured with the lapse of time.\nThe measurement was conducted in accordance with the method of Hasegawa, (Hasegawa, K., Experientia, 34, 750 - 75l (l978)) by measuring the distance from the first toe to the fifth toe of the hind leg.\nThe ratio of the distance at the crushed side to the distance at the normal side was calculated as a percentage (%), the average values and the standard deviations (S.D.) being shown in Table 5.\nIt is known that removal of or disturbance in a certain nerve causes atrophy of the muscle controlled by the nerve, and the atrophy is gradually recovered by the recontrol by the nerve. For this reason, the quantitative change in weight of the muscle was selected as an indicator. At 28th day after the operation, the muscli soleus of both hind legs were extracted under anesthesia with Pentobarbital, and the weights of the muscles were weighed. The weight ratio of the muscli soleus at the crushed side to the muscli soleus at the normal side was calculated and represented by percentage (%).",
  "data": [
    {"smiles": "C/C1=C2/[N-][C@H]([C@H](CC(N)=O)[C@@]2(C)CCC(=O)NC[C@@H](C)OP(=O)([O-])O[C@H]2[C@@H](O)[C@@H](n3cnc4cc(C)c(C)cc43)O[C@@H]2CO)[C@]2(C)N=C(/C(C)=C3N=C(/C=C4N=C1[C@@H](CCC(N)=O)C\\4(C)C)[C@@H](CCC(N)=O)[C@]\\3(C)CC(N)=O)[C@@H](CCC(N)=O)[C@]2(C)CC(N)=O.[CH3-].[Co+3]", "note": "[Mecobalamine]", "values": [
      {"measurement": "Recovery Rate (%) in Distance between the Fingers", "setting": "17th Day", "value": "77.0 ± 10.7", "unit": "%"},
      {"measurement": "Recovery Rate (%) in Distance between the Fingers", "setting": "19th Day", "value": "88.8 ± 5.1", "unit": "%"},
      {"measurement": "Recovery Rate (%) in Weight of the Muscle", "setting": "28th Day", "value": "82.7 ± 5.1", "unit": "%"}
    ]}
  ]
}
